Measured values from US7579504B2, “ABCA1 elevating compounds” (Gilead Sciences, Inc., priority 2005, dated 2009).

test system: ABCA1 mRNA; assay: ABCA1 mRNA induction in THP-1 cells, QuantiGene branched DNA assay; format: cell-based; details: 10 μM, 18-20 hours
Experimental: Modulation of expression of ABCA1 mRNA levels by the compounds of the invention was determined in the following assays.
Induction of ABC1 in THP-1 cells, was measured using QuantiGene® branched DNA assay as per manufacturer's instructions. Cultures of THP-1 were grown to subconfluence in DMEM/10% FBS before replacement with DMEM/BSA and 10 and 3 μM concentrations of the test compounds in DMSO for 18-20 hours. After treatment of cells with compounds, the cells were lysed with lysis buffer at 37° C. for 20 minutes. The cell lysate and ABCA1 specific probe (Genospectra, Inc., Fremont, Calif.) mix were added to the 96 well capture plate and hybridized at 53° C. for 16-18 hours. The signal was amplified using the amplifier and label probes provided with the QuantiGene® assay followed by addition of a luminescent alkaline phosphatase substrate, dioxitane. Luminescence was quantified in Victor V plate reader.
Step 1 • Cells are lysed to release mRNA in the presence of target probes. Target mRNA from lysed cells was then captured by hybridization and transferred to the Capture Plate.
Step 2 • Signal amplification was performed by hybridization of the bDNA Amplifier and Label Probe.
Step 3 • Addition of chemiluminescence substrate yielded a QuantiGene® signal proportional to the amount of mRNA present in the sample.
Table 1 presents the relative fold increase in ABCA1 expression over DMSO for compounds of the invention when tested at a concentration of 10 μM.

| Compound | ABCA1 Induction Fold Increase over DMSO Vehicle [fold] |
| --- | --- |
| N-[(4-methylphenyl)methyl](4-{[(naphthylsulfonyl)benzylamino]methyl}cyclohexyl)carboxamide [Compound 38] | 5.0 |
| {4-[({[4-(methylethyl)phenyl]sulfonyl}benzylamino)methyl]cyclohexyl}-N-[(4-methylphenyl)methyl]carboxamide [Compound 28] | 2.7 |

same assay, conditions: Homo sapiens, 18-20 hours, read-out: ABCA1 Induction Fold Increase over DMSO Vehicle

| Compound | fold induction at 10 µM |
| --- | --- |
| Cc1ccc(CNC(=O)C2CCC(CN(Cc3ccccc3)S(=O)(=O)c3cc(Cl)cc(Cl)c3)CC2)cc1 (stereo not drawn) [Compound 32, [4-({[(3,5-dichlorophenyl)sulfonyl]benzylamino}methyl)cyclohexyl]-N-[(4-methylphenyl)methyl]carboxamide] | 4 |
| Cc1ccc(CNC(=O)C2CCC(CN(Cc3ccccc3)S(=O)(=O)c3ccc(F)cc3C)CC2)cc1 (stereo not drawn) [Compound 33, [4-({[(4-fluoro-2-methylphenyl)sulfonyl]benzylamino}methyl)cyclohexyl]-N-[(4-methylphenyl)methyl]carboxamide] | 4.1 |
| Cc1ccc(CNC(=O)C2CCC(CN(Cc3ccccc3)S(=O)(=O)c3c(C)cc(C)cc3C)CC2)cc1 (stereo not drawn) [Compound 34, N-[(4-methylphenyl)methyl][4-({benzyl[(2,4,6-trimethylphenyl)sulfonyl]amino}methyl)cyclohexyl]carboxamide] | 2.1 |
| Cc1ccc(CNC(=O)C2CCC(CN(Cc3ccccc3)S(=O)(=O)c3ccccc3C(F)(F)F)CC2)cc1 (stereo not drawn) [Compound 35, N-[(4-methylphenyl)methyl]{4-[(benzyl{[2-(trifluoromethyl)phenyl]sulfonyl}amino)methyl]cyclohexyl}carboxamide] | 6.1 |
| Cc1ccc(CNC(=O)C2CCC(CN(Cc3ccccc3)S(=O)(=O)c3cccc(C(F)(F)F)c3)CC2)cc1 (stereo not drawn) [Compound 36, N-[(4-methylphenyl)methyl]{4-[(benzyl{[3-(trifluoromethyl)phenyl]sulfonyl}amino)methyl]cyclohexyl}carboxamide] | 2.7 |
| Cc1ccc(CNC(=O)C2CCC(CN(Cc3ccccc3)S(=O)(=O)c3c(F)c(F)c(F)c(F)c3F)CC2)cc1 (stereo not drawn) [Compound 37, N-[(4-methylphenyl)methyl][4-({[(2,3,4,5,6-pentafluorophenyl)sulfonyl]benzylamino}methyl)cyclohexyl]carboxamide] | 3 |
| Cc1ccc(CNC(=O)C2CCC(CN(Cc3ccccc3)S(=O)(=O)c3ccc(C)c(F)c3)CC2)cc1 (stereo not drawn) [Compound 39, [4-({[(3-fluoro-4-methylphenyl)sulfonyl]benzylamino}methyl)cyclohexyl]-N-[(4-methylphenyl)methyl]carboxamide] | 4 |
| Cc1ccc(CNC(=O)C2CCC(CN(Cc3ccccc3)S(=O)(=O)c3ccc(F)c(Cl)c3)CC2)cc1 (stereo not drawn) [Compound 40, [4-({[(3-chloro-4-fluorophenyl)sulfonyl]benzylamino}methyl)cyclohexyl]-N-[(4-methylphenyl)methyl]carboxamide] | 2.6 |
| Cc1ccc(CNC(=O)C2CCC(CN(Cc3ccccc3)S(=O)(=O)c3ccc4ccccc4c3)CC2)cc1 (stereo not drawn) [Compound 41, N-[(4-methylphenyl)methyl](4-{[(2-naphthylsulfonyl)benzylamino]methyl}cyclohexyl)carboxamide] | 5.2 |
| Cc1ccc(CNC(=O)C2CCC(CN(Cc3ccccc3)S(=O)(=O)c3ccc(Cl)c(Cl)c3)CC2)cc1 (stereo not drawn) [Compound 42, [4-({[(3,4-dichlorophenyl)sulfonyl]benzylamino}methyl)cyclohexyl]-N-[(4-methylphenyl)methyl]carboxamide] | 2.6 |
| Cc1ccc(CNC(=O)C2CCC(CN(Cc3ccccc3)S(=O)(=O)c3ccc(C)cc3)CC2)cc1 (stereo not drawn) [Compound 43, N-[(4-methylphenyl)methyl][4-({[(4-methylphenyl)sulfonyl]benzylamino}methyl)cyclohexyl]carboxamide] | 5.4 |
| Cc1ccc(CNC(=O)C2CCC(CN(Cc3ccccc3)S(=O)(=O)c3ccc(Cl)cc3)CC2)cc1 (stereo not drawn) [Compound 44, [4-({[(4-chlorophenyl)sulfonyl]benzylamino}methyl)cyclohexyl]-N-[(4-methylphenyl)methyl]carboxamide] | 3.2 |
| COc1ccc(S(=O)(=O)N(Cc2ccccc2)CC2CCC(C(=O)NCc3ccc(C)cc3)CC2)cc1 (stereo not drawn) [Compound 45, [4-({[(4-methoxyphenyl)sulfonyl]benzylamino}methyl)cyclohexyl]-N-[(4-methylphenyl)methyl]carboxamide] | 4.3 |
| Cc1ccc(CNC(=O)C2CCC(CN(Cc3ccccc3)S(=O)(=O)c3cccc(Cl)c3F)CC2)cc1 (stereo not drawn) [Compound 46, [4-({[(3-chloro-2-fluorophenyl)sulfonyl]benzylamino}methyl)cyclohexyl]-N-[(4-methylphenyl)methyl]carboxamide] | 4.5 |
| Cc1ccc(CNC(=O)C2CCC(CN(Cc3ccccc3)S(=O)(=O)c3c(C)nn(C)c3C)CC2)cc1 (stereo not drawn) [Compound 47, N-[(4-methylphenyl)methyl][4-({benzyl[(1,3,5-trimethylpyrazol-4-yl)sulfonyl]amino}methyl)cyclohexyl]carboxamide] | 3.5 |
| Cc1ccc(CNC(=O)C2CCC(CN(Cc3ccccc3)S(=O)(=O)c3ccc(-c4ccccc4)cc3)CC2)cc1 (stereo not drawn) [Compound 48, N-[(4-methylphenyl)methyl][4-({benzyl[(4-phenylphenyl)sulfonyl]amino}methyl)cyclohexyl]carboxamide] | 2.9 |
